Assays:
Candida albicans = test: Antimicrobial activity against Candida albicans ATCC 10231 incubated for 16 hrs by microplate reader method; type: functional, organism-based; settings: ATCC 10231, 16 h
NCI-H460 = test: Cytotoxicity against human NCI-H460 cells incubated for 48 hrs by MTT assay; type: functional, cell-based; settings: NCI-H460, 48 h
SW620/AD300 = test: Cytotoxicity against human SW620/AD300 cells incubated for 48 hrs by MTT assay; type: functional, cell-based; settings: SW620/AD300, 48 h
[1] = target: ATP-dependent translocase ABCB1 (Homo sapiens, UniProt P08183); test: Reversal of P-glycoprotein mediated doxorubicin resistance in human SW620/AD300 cells overexpressing P-gp assessed as gain in sensitivity against doxorubicin at 2.5 uM incubated for 52 hrs by MTT assay; type: cell-based; settings: sw620/ad300, 52 h
Chain of ATP-dependent translocase ABCB1 (P08183 whole entry): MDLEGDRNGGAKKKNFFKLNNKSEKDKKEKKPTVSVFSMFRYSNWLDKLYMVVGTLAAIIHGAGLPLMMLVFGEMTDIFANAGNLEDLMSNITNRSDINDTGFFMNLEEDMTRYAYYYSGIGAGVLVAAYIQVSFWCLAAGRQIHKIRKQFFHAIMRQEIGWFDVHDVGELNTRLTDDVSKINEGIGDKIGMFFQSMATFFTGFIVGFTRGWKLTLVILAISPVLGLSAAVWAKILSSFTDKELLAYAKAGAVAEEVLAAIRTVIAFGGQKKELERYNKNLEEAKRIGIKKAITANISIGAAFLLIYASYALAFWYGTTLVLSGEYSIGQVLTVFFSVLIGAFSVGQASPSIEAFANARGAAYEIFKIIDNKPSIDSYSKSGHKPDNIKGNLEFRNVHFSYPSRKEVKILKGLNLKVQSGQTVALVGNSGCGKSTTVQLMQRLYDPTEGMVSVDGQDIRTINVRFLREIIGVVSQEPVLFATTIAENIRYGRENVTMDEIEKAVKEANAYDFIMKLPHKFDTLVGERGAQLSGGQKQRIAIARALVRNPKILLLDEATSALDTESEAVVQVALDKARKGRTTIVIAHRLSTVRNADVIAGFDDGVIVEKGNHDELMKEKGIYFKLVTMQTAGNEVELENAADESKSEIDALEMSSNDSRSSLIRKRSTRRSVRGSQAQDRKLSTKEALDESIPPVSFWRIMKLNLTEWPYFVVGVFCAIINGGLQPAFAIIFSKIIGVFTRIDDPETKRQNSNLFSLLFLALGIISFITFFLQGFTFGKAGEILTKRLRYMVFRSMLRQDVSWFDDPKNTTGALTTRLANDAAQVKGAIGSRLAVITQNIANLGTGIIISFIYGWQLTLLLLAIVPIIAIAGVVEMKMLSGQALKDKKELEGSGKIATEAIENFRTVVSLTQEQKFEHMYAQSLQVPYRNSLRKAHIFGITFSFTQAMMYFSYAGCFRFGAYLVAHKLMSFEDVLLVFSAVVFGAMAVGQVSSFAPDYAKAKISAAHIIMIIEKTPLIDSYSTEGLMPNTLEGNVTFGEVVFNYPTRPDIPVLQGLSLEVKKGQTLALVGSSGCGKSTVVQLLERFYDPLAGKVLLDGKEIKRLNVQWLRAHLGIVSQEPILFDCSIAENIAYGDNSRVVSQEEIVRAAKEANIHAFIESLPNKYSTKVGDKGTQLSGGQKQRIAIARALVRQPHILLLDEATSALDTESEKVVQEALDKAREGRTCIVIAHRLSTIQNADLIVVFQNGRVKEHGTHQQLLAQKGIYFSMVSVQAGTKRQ

Row | Structure (SMILES) | IC50 (Candida albicans) [µM] | IC50 (NCI-H460) [µM] | IC50 (SW620/AD300) [µM] | Activity [1] [%]
1 | C[C@H]1O[C@]2(C)CC(=O)O[C@]2(C)c2c1c(O)c1c3c(c4n(c23)[C@@H]([C@@H](C)O)CC4)C=CC1=O | > 30 | > 30 | > 30 | 
2 | C[C@H]1Oc2c(O)c3c4c(c5n(c4c2C[C@H](CC(=O)O)O1)[C@H]([C@@H](C)O)CC5)C=CC3=O | > 30 | > 30 | > 30 | 
3 | C[C@@H](O)[C@@H]1CCc2c3c4c(c(O)c(O)c(C[C@@H](O)CC(=O)O)c4n21)C(=O)C=C3 | > 30 | > 30 | > 30 | 
4 | C[C@@H]1O[C@@H](CC(=O)O)C(=O)c2c1c(O)c1c3c(c4n(c23)[C@H]([C@@H](C)O)CC4)C=CC1=O | > 30 | > 30 | > 30 | 45
5 | C[C@@H]1OC(CC(=O)O)=Cc2c1c(O)c1c3c(c4n(c23)[C@H]([C@@H](C)O)CC4)C=CC1=O | > 30 | > 30 | > 30 | 45
6 | COC(=O)C[C@H]1Cc2c(c(O)c3c4c(c5n(c24)[C@H]([C@@H](C)O)CC5)C=CC3=O)[C@H](C)O1 | > 30 | > 30 | > 30 | 45
7 | C[C@H]1O[C@H](CC(=O)O)Cc2c1c(O)c1c3c(c4n(c23)[C@@H]([C@@H](C)O)CC4)C=CC1=O | > 30 | > 30 | > 30 | 45
8 | C[C@H]1OC(CC(=O)O)=Cc2c1c(O)c1c3c(c4n(c23)[C@H]([C@@H](C)O)CC4)C=CC1=O | > 30 | > 30 | > 30 | 45

From ChEMBL document CHEMBL5131460, “Glenthenamines A-F: Enamine Pyranonaphthoquinones from the Australian Pasture Plant Derived Streptomyces sp. CMB-PB042” (J Nat Prod, 2022)
